One data set deals with Drosophila S2 cells. In words: Measurement of intracellular calcium (fura-2). The class given is cell-based. To be noted: uracil 20 nM. Here is the method: Intracellular Ca^2+ was measured by the method disclosed in the previous research (Rosker et al., J Biol Chem 279, pp. 13696-13704, 2004). Briefly speaking, Drosophila S2 cells (approx. 10^8 cells) were loaded with pH 7.4 buffer containing 10 mM glucose, 140 mM NaCl, 1 mM CaCl2, 5 mM KCl, 1 mM MgCl2, and 10 mM HEPES and the solution was treated with […] fura-2-acetoxymethyl ester for 40 minutes at room temperature. The cells were washed twice with pH 7.4 Ca^2+ chelating buffer containing 10 mM glucose, 140 mM NaCl, 1 mM EDTA, 1 mM EGTA, 5 mM KCl, 1 mM MgCl2, and 10 mM HEPES, and were re-suspended in the same buffer. Then, 20 nM of uracil was added to the cells. Fluorescence was continuously recorded at an interval of 0.5 seconds (excitation at 340 nm and 380 nm; emission at 510 nm) by fluorescent spectrophotometer (Shimadzu, Tokyo, Japan) at room temperature.

Another data set concerns PLCβ. In words: PLCβ position in cell membrane (PLCβ-RFP flies). The class given is in vivo, Drosophila. Conditions: uracil 20 nM for 2 hours. The procedure:
Genetically modified Drosophila containing PLCβ-RFP (UAS-PLCβ-RFP; Da-GAL4) were used to monitor activated PLCβ generation which is targeted in the membrane as disclosed in the previous research (Ha et al., Nat Immunol 10, pp. 949-957, 2009). A 5% sucrose solution containing 20 nM of uracil was ingested by Drosophila (5 to 6 days old) for 2 hours.

In another data set the test system is DUOX. The data set can be described thus: DUOX expression by qPCR. Format: in vivo, Drosophila. Conditions: uracil 20 nM. Here is the method: Fluorescent RT-PCR was conducted to quantify gene expression and double-stranded DNA dye and SYBR green (Perkin Elmer, Waltham, Mass., USA) were used. To detect target gene trascriptomes, Cecropin (Sense, 5′-ATGAACTTCTACAACATCTTCG-3′ (SEQ ID NO: 5); Antisense, 5′-GGCAGTTGCGGCGACATTGGCG-3′ (SEQ ID NO: 6)), Diptericin (Sense, 5′-GGCTTATCCGATGCCCGACG-3′ (SEQ ID NO: 7); Antisense, 5′-TCTGTAGGTGTAGGTGCTTCCC-3′ (SEQ ID NO: 8)), and DUOX (Sense, 5′-GCTGCACGCCAACCACAAGAGACT-3′ (SEQ ID NO: 9); Antisense, 5′-CACGCGCAGCAGGATGTAAGGTTT-3′ (SEQ ID NO: 10)) were used, and as a control group, Rp49 (Sense, 5′-AGATCGTGAAGAAGCGCACCAAG-3′ (SEQ ID NO: 11); Antisense, 5′-CACCAGGAACTTCTTGAATCCGG-3′ (SEQ ID NO: 12)) was used. SYBR green analysis was conducted by an ABI PRISM 7700 system (PE Applied Biosystems, Foster City, Calif., USA) according to the manufacturer's instructions. All of the samples were repeated three times and analyzed, and a detected amount of mRNA was normalized with mRNA in the control group. Normalized data was used to quantify the relative amount of mRNA according to cycling threshold analysis. Targeted gene expression was expressed as the relative amount of expression.

For a further data set, the system named is germ-free Drosophila. The data set can be described thus: Survival duration of germ-free flies on uracil-containing media. The class given is in vivo. An excerpt: Control Drosophila and PLCβ-DUOX pathway-mediated mutated Drosophila (PLCβ^−/− and DUOX-RNAi) were used in the experiment. It is known that PLCβ^−/− and DUOX-RNAi flies have a short life span under conventional rearing conditions but a normal life span under germ-free conditions (Ha et al., Nat Immunol 10, pp. 949-957, 2009). Therefore, to examine the effects of uracil on the survival rate of genetically different Drosophila, germ-free animals were used. Germ-free animals were reared in germ-free media containing 1 nM of uracil. Germ-free animals were moved to a newly sterilized bottle that had germ-free media containing uracil every 4 or 5 days. Drosophila remained germ-free throughout the entire experimental processes.

The subject of another data set is p38. The data set can be described thus: p38 activation by phospho-p38 immune staining of midgut. Format: in vivo, Drosophila. To be noted: uracil 20 nM for 2 hours. The procedure:
To examine uracil-induced p38 activation, a 5% sucrose solution containing 20 nM of uracil was orally administered to genetically different adult Drosophila (5 to 6 days old) for 2 hours. Midguts were dissected in PBS and fixed with 4% paraformaldehyde for 15 minutes. The midguts were washed three times with PBS containing 0.1% of Triton X-100 for 5 minutes and were cultured in the above solution with additional 5% cow blood serum albumin for 1 hour. Next, the sample was cultured with additional phospho-specific anti-p38 antibody (1:500 dilution; Millipore, Milford, Mass., USA) at 4° C. for 16 hours. The sample was washed five times with PBS containing 0.1% Triton X-100 for 5 minutes and cultured at room temperature for 20 minutes after adding secondary antibodies (1:500 dilution; Alexa Fluor 568 goat anti-rabbit IgG; Invitrogen, Carlsbad, Calif., USA). After washing the sample three times with PBS containing 0.1% Triton X-100 for 5 minutes, the sample was mounted with mounting buffer solution (Vectorshield, Vector Laboratories Inc., Burlingame, Calif., USA) and was analyzed by LSM 700 confocal microscopy (Carl Zeiss, Oberkochen, Germany)

Molecules are shown by their SMILES. “Also recorded” adds a separate entry of the source.

Regarding `O=c1cc[nH]c(=O)[nH]1` [uracil], the “Ca2+ mobilization” value with Drosophila S2 cells was “Ca^2+ mobilization”. Further, the “PLC activation (membrane localization of active PLC)” value in the data set with PLCβ is “PLC activation”. Besides, the DUOX gene induction result in the data set on DUOX is given as “DUOX gene induction”. For the same molecule, the “host lethality / mortality after long-term ingestion of uracil” value with germ-free Drosophila (germ-free control flies, uracil-containing vs normal food) is given as “lethality of control flies in a dose-dependent manner; also recorded: statistically significant difference in mortality”. Further, the “uracil-induced host pathology in PLCβ−/− or DUOX-RNAi flies” value with germ-free Drosophila (in vivo) is listed as “completely absent”. The “p38 MAPK activation” value with p38 is given as “p38 MAPK activation”.

The record behind these values is patent publication US10092566B2, “Composition for controlling a gut immunity and use thereof” (SEOUL NATIONAL UNIVERSITY R&DB FOUNDATION, priority 2013, dated 2018).
